Entries after “also recorded” stand apart in the source; their conditions may differ.
Legend:
[1] = system: chronic dermatitis; assay: Case report: topical therapy of chronic dermatitis following poison ivy attack; format: in vivo, Human; conditions: one person, topical once every three days, three applications
Experimental: A case report: A volunteer had been suffering from chronic dermatitis with intense itching following a poison ivy attack two years earlier. The affected area was externally treated with 0.5 ml of 5 mg/ml of 25HC3S sodium salt in a body lotion (Cococare®, Vitamin E Cream) once every three days for a total of three applications.

[2] = First cadaver skin flux study (radiolabelled 25HC3S, diffusion cells, % dose recovered); format: in vitro ADME; conditions: from comparison of formulations in cadaver skin study
Experimental: The formulations shown in the below Table 22 were made. Each of the below formulations containing drug included 1 wt % non-radiolabelled 25HC3S since the maximum drug loading achieved in Carbopol based creams or gels was 1 wt %. In positive control C1, 20 wt % DMSO was included in EtOH to achieve 1 wt % drug loading.
The procedure for mixing radiolabelled C^14-25HC3S with each formulation was as follows. Formulation (1 mL of each) was placed into 1 mL vials. To each vial was added 5 μL EtOH containing hot material ([…] radiolabelled 25HC3S). The mixture was mixed using a small plunger for 4 to 5 minutes until uniform.
The above formulations were tested on cadaver skin as follows. Dermatomed cadaver skin was obtained from thigh and abdominal areas. A total of 4 donor skin samples (4 separate experiments) were used in the study. Skin samples were placed on diffusion cells (see below) at least 2 hours prior to dosing. Skin sample integrity was examined by measuring […] water loss (TEWL).
The diffusion cells had 1 cm^2 surface area. Each sample at each testing point had 2-3 replicates.
The dose was 10-25 μL of formulation each containing 0.2-0.5 μCi radioactivity per diffusion cell.
The receptor fluid was 6% PEG 400 in PBS. The receptor fluid flow rate was continuous flow at 4.7 mL/hr.
For dose application, the net amount was determined by weight difference before and after dosing application.
The total skin exposure time was 24 hours. After 8 hours of skin exposure, skin surface dose residues were removed by 5% soap-water washing as follows: (1) two times with small cotton balls wetted with 5% clear Ivory® liquid soap (Proctor and Gamble); and (2) two times with cotton balls wetted with distilled de-ionized water to recover the residual drug content, and a final drying with a dry cotton ball. After 16 hours of additional skin exposure (after skin washing), the experiment was finished.
The dosed skin was first tape stripped 10 times followed with heat separation of viable epidermis and dermis. Receptor fluid samples were collected at 30 min, 1 hour, 2 hour, and every 2 hours until the end of the experiment. All samples were counted for radioactivity

| Compound | itching, redness and swelling ([1]; 0.5 ml of 5 mg/ml in body lotion (Cococare Vitamin E Cream)) | skin recovery ([1]; 0.5 ml of 5 mg/ml in body lotion) | trend as permeation enhancer (PE) [2] |
| --- | --- | --- | --- |
| C[C@H](CCCC(C)(C)O)[C@H]1CC[C@H]2[C@@H]3CC=C4CC(OS(=O)(=O)[O-])CC[C@]4(C)[C@H]3CC[C@]12C.[Na+] (stereo partly drawn) [25HC3S sodium salt, 5-cholesten-3, 25-diol, 3-sulfate] | Within two days, the itching subsided, and redness and swelling decreased | almost completely recovered in 10 days | – |
| CCO [EtOH, ethanol] | – | – | high PE; also recorded: great permeation enhancer |
| CCCCCCCCCCCCOC(=O)C(C)O (stereo not drawn) [LL, Lauryl lactate] | – | – | may be more effective than PG |
| CC(O)CO (stereo not drawn) [PG, propylene glycol] | – | – | may be about the same as OA; also recorded: good permeation enhancer |
| PEG 400 | – | – | poor permeation enhancer |
